We go through 78 compounds from PubChem BioAssay AID977630 (Broad Institute, 2014).

Results filed as inconclusive are left out. Active and inactive are the calls of the source.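 The calls were made as follows: active = Normal-ribosome green reporter loss at least double humanized-ribosome red reporter loss, with overall culture growth inhibition under a set limit; inconclusive = no clear call, values can overlap the other calls; inactive = the rest.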

The test system of the assay is E. coli wild-type GFP growth, mixed culture, 24 h. Description: growth inhibition of wild-type GFP E. coli, H38-humanized RFP comparator, dose response, H38 mutant RFP vs wild-type GFP, cherry-pick (AID 977630).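 Also: wild-type GFP strain mixed equally with humanized-ribosome H38 mutant expressing RFP.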
The mark [1] stands for this setting: E. coli mixed culture total OD600 growth, 24 h.

Regarding `Cc1ccc(-c2nc3ccc(NS(=O)(=O)c4ccccc4)cc3[nH]2)o1`, the AC50 – broadly, the concentration giving half of the maximal activity seen – is > 100 µM (inactive). Under setting [1], this compound displayed an AC50 of 33.6 µM.
Consider `COC(=O)c1ccc(OS(=O)(=O)c2ccc(NC(C)=O)cc2)cc1`, for which the AC50 is > 100 µM (inactive). Under setting [1], this compound came in with an AC50 above 100 µM.
Turning to `Cc1nn(C(C)(C)C)c(OC(=O)CC(C)C)c1S(=O)(=O)c1ccccc1`, the AC50 was > 100 µM (inactive).
On to `CC(=O)c1c(C)nn(CC(O)COc2ccc3c(c2)CCC3)c1C` (stereo not given), for which the AC50 was > 100 µM (inactive). Besides, under setting [1], the AC50 was above 100 µM.
Turning to `CCOC(=O)c1ccc(NC(=O)c2ccc(OC(C)C)c(OC)c2)cc1`, the AC50 under setting [1] was above 100 µM.
For `O=C(COc1ccccc1Cl)Nc1nc(-c2ccncc2)cs1`, the AC50 is > 100 µM (inactive).
For `Cc1ccc2c(N)c(C(=O)c3ccccc3)sc2n1`, the AC50 under setting [1] was above 100 µM.
On to `COc1ccc2[nH]c3c(=O)n(CCCCC(=O)NCCC(C)C)c(=S)[nH]c3c2c1`, for which the AC50 was 2.42 µM. Moreover, the AC50 under setting [1] is above 100 µM.
With `CC1CCCN(c2ccc(C(=O)NCCc3ccccc3)cn2)C1` (stereo not given), the AC50 was > 100 µM (inactive). Further, under setting [1], the AC50 was above 100 µM.
Consider `O=C(Nc1ccc(C(=O)Nc2ccccc2Cl)cc1)c1cccnc1`, for which the AC50 is > 100 µM (inactive).
As to `Cc1ccsc1C(=O)C1CCCN(Cc2cc(F)ccc2-n2cccn2)C1` (stereo not given), the AC50 is > 100 µM (inactive). Under setting [1], this compound gave an AC50 above 100 µM.
In turn, `CCOC(=O)c1c(C)[nH]c(C)c1S(=O)(=O)NCCN1CCN(c2ccccc2F)CC1` returned an AC50 under setting [1] above 100 µM.
`S=c1nc(-c2cccc(Br)c2)[nH][nH]1` had an AC50 under setting [1] above 100 µM.
As for `Cc1nnn(C23CC4CC(CC(CC(=O)Nc5ccc(C)c(C)c5)(C4)C2)C3)n1`, the AC50 was > 100 µM (inactive).
In the case of `CSc1ncc(CN2CCCC(C(=O)c3cccc(Cl)c3)C2)cn1` (stereo not given), the AC50 is > 100 µM (inactive). Under setting [1], this compound displayed an AC50 above 100 µM.
Turning to `O=c1c2cc(Br)ccc2[nH]c(=S)n1Cc1ccccc1`, the AC50 is > 100 µM (inactive).
`COc1cccc(C(=O)Nc2nnc(S(=O)(=O)N(C)Cc3ccccc3)s2)c1`: the AC50 was > 100 µM (inactive). The compound also gave an AC50 under setting [1] of 50.9 µM.
Turning to `C[C@]12CCC(=O)C[C@H]1CC[C@@H]1[C@@H]2CC[C@]2(C)C(=O)CC[C@@H]12`, the AC50 is > 100 µM (inactive).
On the same count and under the same terms, the same measure for `CCc1nc2ccccc2n1CCc1ccccc1`: > 100 µM (inactive).
Same read-out and setting: then `COC(=O)c1c(NC(=O)CCC(=O)O)sc(Cc2ccccc2)c1C`, with 3.63 µM; and `CCOC(=O)C1(CCCc2ccccc2)CCN(C(=O)CCn2cncn2)CC1`, with > 100 µM (inactive).
`Cc1cccc(NC(=O)c2c(C)nn(-c3ccccc3)c2Cl)c1`: under setting [1], the AC50 was found to be 41.6 µM.
Regarding `O=C(O)CC(CC(=O)Nc1ccc(Oc2ccccc2)cc1)c1ccccc1` (stereo not given), the AC50 was > 100 µM (inactive). Moreover, the AC50 under setting [1] is above 100 µM.
`Cc1cc(C)n2nc(C(=O)Nc3cccc(S(=O)(=O)N(C)c4ccccc4)c3)nc2n1`: the AC50 is > 100 µM (inactive).
On to `COc1ccccc1CN1Cc2ccccc2Oc2ccccc2S1(=O)=O`, for which the AC50 was > 100 µM (inactive). The compound further gave an AC50 under setting [1] above 100 µM.
Take `O=C(NCc1ccco1)c1ccc(COc2cccc3ccccc23)cc1`: the AC50 was > 100 µM (inactive).
In the case of `COC(=O)CC#C[C@H](C)[C@@H](NS(=O)(=O)c1ccc([N+](=O)[O-])cc1)C(C)(C)C`, the AC50 is > 100 µM (inactive).
For `CCNC(=O)C1(C)CCCN(Cc2cccc3ccccc23)C1` (stereo not given), the AC50 was > 100 µM (inactive).
Same read-out and setting: the same measure for `Cc1ccc(Cl)cc1N1CCN(C(=O)c2ccc3nc[nH]c3c2)CC1`: > 100 µM (inactive); for `CCOc1ccc(OCCn2c(=S)[nH]c3c(N)ncnc32)cc1`: > 100 µM (inactive).
Consider `CC(=O)N(CCC1(c2ccc(C)cc2)CCOC(C(C)C)C1)Cc1ccco1` (stereo not given), for which the AC50 is > 100 µM (inactive).
With `CCS(=O)(=O)N1CCN(c2ccnc3cc(Cl)ccc23)CC1`, the AC50 is > 100 µM (inactive). The compound further yielded an AC50 under setting [1] above 100 µM.
As for `COc1ccc(NC(=O)c2cccs2)cc1C(=O)N1CCN(c2ccccc2)CC1`, the AC50 was > 100 µM (inactive).
Regarding `CCN(CC(=O)Nc1cccc(C#N)c1)CC(=O)Nc1cccc(OC)c1`, the AC50 is > 100 µM (inactive).
Same read-out and setting: the same measure for `COc1cccc(NC(=O)CSc2nc3c(sc4ccccc43)c(=O)n2CCN(C)C)c1`: > 100 µM (inactive).
Same read-out and setting: the same measure for `Cc1cccc(Oc2ccc(NC(=O)c3ccccc3C(=O)O)cc2)c1`: > 100 µM (inactive); for `COc1ccc(OC)c(-c2csc(NC(=O)C3COc4ccccc4O3)n2)c1` (stereo not given): > 100 µM (inactive); for `COc1cccc(CC(=O)OC(C)C(=O)NCc2ccc3c(c2)OCO3)c1` (stereo not given): > 100 µM (inactive).
Under setting [1], `COc1cccc(-c2ccc(NC(=O)C3CCCN(Cc4cnn(C(C)C)c4)C3)cc2)c1` (stereo not given) displayed an AC50 above 100 µM.
In the case of `CCn1c(-c2ccccc2Cl)nn(CC(=O)Nc2ccccc2OC)c1=S`, the AC50 was > 100 µM (inactive). Under setting [1], this compound showed an AC50 above 100 µM.
In the case of `COc1ccc(CSc2nc3ccccc3c(=O)n2CCCN2CCOCC2)cc1F`, the AC50 was > 100 µM (inactive).
Same read-out and setting: then `CCN(CC)S(=O)(=O)c1cccc(NC(=O)CNc2cccc(S(=O)(=O)N3CCCC3)c2)c1`, with > 100 µM (inactive).
On the same count and under the same terms, then `O=C(COc1cc(F)ccc1[N+](=O)[O-])NCCCc1ccccc1`, with > 100 µM (inactive); and `C=CCN(CC=C)C(=O)c1ccc2nc(Cc3ccc(OC)c(OC)c3)oc2c1`, with > 100 µM (inactive).
The compound `Cc1ccc(S(=O)(=O)N2CCCCC2C(=O)N2CCN(c3ccccc3F)CC2)cc1` (stereo not given) gave an AC50 under setting [1] above 100 µM.
In the case of `Cc1cc(C(=O)OCC(=O)Nc2cccc(S(N)(=O)=O)c2)c2ccccc2n1`, the AC50 is > 100 µM (inactive). The AC50 under setting [1] was above 100 µM.
`CCN(c1ccccc1)S(=O)(=O)c1ccc(Cl)c(NC(=O)CSc2n[nH]c(N)n2)c1`: the AC50 was > 100 µM (inactive). In addition, under setting [1], the AC50 was above 100 µM.
Take `CN(C)S(=O)(=O)c1ccc(Cl)c(C(=O)OCC(=O)NC(=O)c2cccn2C)c1`: the AC50 is > 100 µM (inactive).
`CCCc1c(C(=O)Nc2ccc(OC)cc2)cnn1-c1ccccc1`: the AC50 was > 100 µM (inactive). The compound further gave an AC50 under setting [1] above 100 µM.
The corresponding values for `O=S(=O)(c1ccccc1)N1CCN=C1SCc1cccc(Cl)c1` are > 100 µM (inactive) and above 100 µM.
The matching figures for `O=C(COC(=O)C1CC2C=CC1C2)Nc1ccc([N+](=O)[O-])cc1` (stereo not given): > 100 µM (inactive) and above 100 µM.
Take `Cn1cc(CN2CCCC(C(=O)c3cccs3)C2)c(-c2cccc(Cl)c2)n1` (stereo not given): the AC50 was > 100 µM (inactive).
Same read-out and setting: then `CC(C)(C)C1CCC(C(=O)OCC(=O)N2CCN(C(=O)c3ccco3)CC2)CC1` (stereo not given), with > 100 µM (inactive).
Turning to `O=c1[nH]c(C2CCCN(S(=O)(=O)c3ccccc3Cl)C2)nc2c1nnn2Cc1ccc2c(c1)OCCO2` (stereo not given), the AC50 was > 100 µM (inactive). Besides, the AC50 under setting [1] was above 100 µM.
As to `COc1cc(NC(=O)COC(=O)CC(C)(C)C)c(C)cc1[N+](=O)[O-]`, the AC50 is > 100 µM (inactive). Besides, the AC50 under setting [1] was above 100 µM.
The corresponding values for `CCCC(=O)Nc1sc2c(c1C(=O)Nc1ccccn1)CCCC2` are > 100 µM (inactive) and above 100 µM.
For the compound `O=C(Nc1ccc(Br)cc1)c1cccnc1N1CCCCC1`, the AC50 under setting [1] was above 100 µM.
As to `CC(=O)N1CCOc2ccc(S(=O)(=O)N(C)c3ccc(C)cc3)cc21`, the AC50 was > 100 µM (inactive).
As for `O=C(c1ccc(N2CCCCC2)c([N+](=O)[O-])c1)N1CCN(c2ccccn2)CC1`, the AC50 was > 100 µM (inactive). Under setting [1], this compound registered an AC50 above 100 µM.
`Cc1cccc(C(=O)NCC(=O)NCCSc2ccc(Br)cc2)c1`: the AC50 was > 100 µM (inactive).
As to `Nc1ccc(C(=O)Nc2ccc3nc(-c4ccncc4)[nH]c3c2)cc1`, under setting [1], the AC50 is above 100 µM.
For the compound `Cc1ccc(SCC(=O)Nc2ccc(S(=O)(=O)Nc3nccs3)cc2)cc1`, the AC50 was > 100 µM (inactive).
As for `CC(=O)OC(COc1cccc(C)c1)Cn1cnc2ccccc21` (stereo not given), the AC50 is > 100 µM (inactive). Under setting [1], this compound had a half-maximal activity concentration (AC50) above 100 µM.
Consider `COCC(C)NC(=O)c1nn(Cc2ccccc2)c(=O)c2ccccc12` (stereo not given), for which the AC50 was > 100 µM (inactive). Also, the AC50 under setting [1] was above 100 µM.
On to `Nc1ccccc1Nc1ccc([N+](=O)[O-])cc1[N+](=O)[O-]`, for which the AC50 is > 100 µM (inactive).
As for `COc1cccc(CNC(=O)CCSCc2ccccc2F)c1`, the AC50 is > 100 µM (inactive). Also, under setting [1], the AC50 is above 100 µM.
The corresponding values for `CC(=O)Nc1ccc(S(=O)(=O)Nc2cccc(-c3nc4cc(C)ccc4o3)c2)cc1` are > 100 µM (inactive) and above 100 µM.
As for `CN1OC[C@@H]2CN(C(=O)c3ccco3)[C@H](c3ccc(-c4ccc(C#N)cc4)cc3)C[C@@H]21`, the AC50 under setting [1] was above 100 µM.
On to `O=C(CCCn1c(=S)[nH]c2ccsc2c1=O)Nc1ccc2c(c1)OCCO2`, for which the AC50 was > 100 µM (inactive). This compound also came in with an AC50 under setting [1] above 100 µM.
Regarding `CC(=O)N1CCN(c2nc(-c3cccs3)nc3ccccc23)CC1`, the AC50 was > 100 µM (inactive).
On to `Cc1nn2c(NCc3ccccn3)cc(C(C)C)nc2c1-c1ccccc1`, for which the AC50 was > 100 µM (inactive).
Regarding `Cc1nn(-c2cccc(Cl)c2)nc1C(=O)O`, the AC50 is > 100 µM (inactive).
Consider `CSc1nc2nc3c(cc2c(=O)n1-c1ccccc1C)CCCC3`, for which the AC50 was > 100 µM (inactive). This compound also registered an AC50 under setting [1] above 100 µM.
Consider `CN1CCN(c2nc(Nc3ccc(O)cc3)nc3ccccc23)CC1`, for which the AC50 was > 100 µM (inactive).
On the same count and under the same terms, the same measure for `Cc1cccc(NC(=O)CN(C)S(=O)(=O)c2cccs2)c1`: > 100 µM (inactive); for `Brc1ccc(Nc2ncnc3[nH]ncc23)cc1`: > 100 µM (inactive).
With `S=c1nc(-c2cc(Cl)cc(Cl)c2)[nH][nH]1`, the AC50 was > 100 µM (inactive).
In turn, `CNC(=O)c1ccsc1NC(=O)c1ccc(S(=O)(=O)N2CCc3ccccc32)cc1` came in with an AC50 under setting [1] above 100 µM.
